From paper PMC11678797, “A Repurposed Drug Selection Pipeline to Identify CNS-Penetrant Drug Candidates for Glioblastoma” (Pharmaceuticals, 2024)
Where two headings read alike, the source gives them in different places.

Test: Pharmacokinetics of omacetaxine in orthotopic glioblastoma PDX and naïve NOD/SCID mice (LC-MS/MS of plasma, brain, liver)
Assay type: in vivo, mouse
Experimental: An amount of 10 μL medium samples was vortex-mixed with 30 μL of acetonitrile: formic acid (100:1 v/v) containing 100 nM RO-3306 Internal Standard). After centrifugation, the supernatant was 5-fold diluted in water. OMA concentrations were measured using an LC-MS/MS system that consisted of an UltiMate 3000 LC System (Dionex, Sunnyvale, CA, USA) and an API 4000 mass spectrometer (Sciex, Framingham, MA, USA). Samples were analyzed using a ZORBAX Extend-C18 column (Agilent, Santa Clara, CA, USA), preceded by a Security-guard C18 pre-column (Phenomenex, Utrecht, The Netherlands). Elution was performed using a mixture of mobile phase A (0.1% formic acid in water (v/v)) and mobile phase B (methanol) in a 5 min gradient from 20% to 95% B, followed by 95% B that was maintained for 3 min and then re-equilibrated at 20% B. Multiple reaction monitoring parameters were 546.6/298.1 (OMA) and 352.1/186.0 (RO-3306).
Non-obese diabetic severe combined immunodeficient (NOD/SCID) female mice 6–8 weeks of age were used for this study. All experiments were ethically approved by the local Animal Experiments Committee. Patient-derived glioblastoma cell lines were cultured under serum-free conditions prior to injection into the mice. Mice were stereotactically injected with GS607, GS832 (both 2.5 × 10^5 in 5 μL) or GBM8 (1 × 10^5 in 3 μL) in the right striatum 1.0 mm anteroposterior (AP), 2.0 mm medio lateral (ML) and −2.5 mm dorsal ventral (DV) of bregma suture under aseptic conditions. Mice were monitored daily for signs of persistent abnormal behavior and/or breathing, weight loss >20% and development of neurological symptoms such as convulsions, seizures and/or hemiparesis. Mice were euthanized and the mouse brains harvested for histological and LC/MS/MS analysis.
A single dose of 1.5 mg/kg of OMA was administered s.c. to glioblastoma-bearing NOD/SCID and naïve non-tumor-bearing mice. Mice received OMA prior to the timepoint drug delivery experiment, ensuring the presence of significant tumor masses. For GS607, this was at 78 days; for GS832 at 90 days; and for GBM8 at 46 days post-tumor implantation, based on previous survival experiments. Blood samples were collected at 15 min, 30 min, 60 min, 120 min and 240 min via the tail vein and/or submandibular vein and placed in EDTA tubes. Mice were euthanized at 60 min, 120 min or 240 min with cervical dislocation. Brains and livers were surgically collected and snap-frozen in liquid nitrogen (N2). To preserve the drug stability in plasma mouse blood, samples were centrifuged immediately upon collection. Plasma was separated by centrifugation at 3500 rpm at 4 °C for 15 min. Both plasma and tissue samples were stored at −80 °C until LC-MS/MS analysis.

[1] = GBM8 PDX, 60 min, single s.c. dose 1.5 mg/kg, n = 6, 1.5 mg/kg
[2] = GS607-PDX, 60 min, single s.c. dose 1.5 mg/kg, n = 2 blood samples, 1.5 mg/kg
[3] = GS607-PDX, 60 min, single s.c. dose 1.5 mg/kg, n = 4, 1.5 mg/kg
[4] = GS832-PDX, 60 min, single s.c. dose 1.5 mg/kg, n = 5, 1.5 mg/kg
[5] = GS832-PDX, single s.c. dose 1.5 mg/kg

With `COC(=O)C[C@](O)(CCCC(C)(C)O)C(=O)O[C@@H]1C(OC)=C[C@]23CCCN2CCc2cc4c(cc2[C@H]13)OCO4` [OMA, Omacetaxine mepesuccinate] the “[Brain] ± SD, right hemisphere (tumor bearing)” value (from here on “[Brain] ± SD, right hemisphere”) [1] was 45.0 ± 20.0 ng/g, the “[Liver] ± SD” value [1] was 998.2 ± 254.3 ng/g and the “[Plasma] ± SD” value [1] was 391.3 ± 57.5 ng/mL. For the same compound, the “[Brain]/[Plasma] Ratio ± SD” value (GBM8 PDX, 60 min, single s.c. dose 1.5 mg/kg, 1.5 mg/kg) was 0.11 ± 0.04, the “[Brain]/[Plasma] Ratio ± SD” value [2] was 0.23 ± 0.01 and the “[Plasma] ± SD” value [2] was 88.4 ± 9.0 ng/mL. The “[Brain] ± SD, right hemisphere” value [3] was 20.7 ± 5.05 ng/g, the “[Liver] ± SD” value [3] was 1653.4 ± 163.6 ng/g and the “[Plasma] ± SD” value (GS832-PDX NOD/SCID mice, single s.c. dose 1.5 mg/kg, 15 min (Table 1), 1.5 mg/kg) was 396.3 ± 58.7 ng/mL. For the same compound, the “[Plasma] ± SD” value (GS832-PDX NOD/SCID mice, single s.c. dose 1.5 mg/kg, 60 min (Table 1, n = 9), 1.5 mg/kg) was 165.7 ± 28.7 ng/mL, the “[Plasma] ± SD” value (GS832-PDX NOD/SCID mice, single s.c. dose 1.5 mg/kg, 240 min (Table 1), 1.5 mg/kg) was 23.9 ± 2.86 ng/mL and the “[Brain] ± SD, right hemisphere” value [4] was 18.0 ± 6.3 ng/g. The “[Liver] ± SD” value [4] was 680.0 ± 155.9 ng/g, the “[Brain]/[Plasma] Ratio ± SD” value (GS832-PDX, 60 min, single s.c. dose 1.5 mg/kg, 1.5 mg/kg) was 0.10 ± 0.05 and the “[Liver] ± SD” value (GS832-PDX, 240 min, single s.c. dose 1.5 mg/kg, n = 5, 1.5 mg/kg) was 190.1 ± 47.8 ng/g. The “[Brain]/[Plasma] Ratio ± SD” value (GS832-PDX, 240 min, single s.c. dose 1.5 mg/kg, 1.5 mg/kg) was 0.50 ± 0.33, the “brain total mean concentration lower than in the liver” value [5] was “approximately 40 fold” and the “concentrations in tumor-bearing hemisphere versus contralateral hemisphere” value [5] was “not significantly different”. The “reduction in plasma concentration from peak (15 min) by 4 h” value (GS832 tumor-bearing mice, single s.c. dose 1.5 mg/kg) was 17 fold, the “OMA concentrations in tumor-bearing versus contralateral hemispheres” value (any of the tested models (GS832, GS607, GBM8)) was “did not detect a significant difference” and the concentration at 60 min (female, NOD/SCID, mouse, brain tumor, sc, 1.5 mg/kg, GBM8 PDX, 60 min, single s.c. dose 1.5 mg/kg, read-out: measured brain tumor concentration expressed) was 82.5 nM. For the same compound, the concentration at 60 min (female, NOD/SCID, mouse, brain tumor, sc, 1.5 mg/kg, GS607-PDX, 60 min, single s.c. dose 1.5 mg/kg, read-out: measured brain tumor concentration expressed) was 37.9 nM, the concentration at 60 min (female, NOD/SCID, mouse, brain tumor, sc, 1.5 mg/kg, GS832-PDX, 60 min, single s.c. dose 1.5 mg/kg, read-out: measured brain tumor concentration expressed) was 33 nM and the concentration at 60 min (female, NOD/SCID, mouse, brain, right hemisphere (non-tumor-bearing), sc, 1.5 mg/kg, naïve non-tumor-bearing mice, 60 min, single s.c. dose 1.5 mg/kg, n = 2, read-out: [Brain] ± SD, right hemisphere (non-tumor-bearing)) was 16.4 ± 2.9 ng/g. It also gave a concentration at 60 min (female, NOD/SCID, mouse, brain, right hemisphere (tumor bearing), sc, 1.5 mg/kg, GBM8 PDX, 60 min, single s.c. dose 1.5 mg/kg, n = 6, read-out: [Brain] ± SD, right hemisphere (tumor bearing)) of 45 ± 20 ng/g, a concentration at 60 min (female, NOD/SCID, mouse, brain, right hemisphere (tumor bearing), sc, 1.5 mg/kg, GS607-PDX, 60 min, single s.c. dose 1.5 mg/kg, n = 4, read-out: [Brain] ± SD, right hemisphere (tumor bearing)) of 21 ± 5 ng/g and a concentration at 60 min (female, NOD/SCID, mouse, brain, right hemisphere (tumor bearing), sc, 1.5 mg/kg, GS832-PDX, 60 min, single s.c. dose 1.5 mg/kg, n = 5, read-out: [Brain] ± SD, right hemisphere (tumor bearing)) of 18 ± 6 ng/g. The concentration at 120 min (female, NOD/SCID, mouse, brain, right hemisphere (tumor bearing), sc, 1.5 mg/kg, GS832-PDX, 120 min, single s.c. dose 1.5 mg/kg, n = 5, read-out: [Brain] ± SD, right hemisphere (tumor bearing)) was 20.8 ± 16.9 ng/g, the concentration at 240 min (female, NOD/SCID, mouse, brain, right hemisphere (tumor bearing), sc, 1.5 mg/kg, GS832-PDX, 240 min, single s.c. dose 1.5 mg/kg, n = 5, read-out: [Brain] ± SD, right hemisphere (tumor bearing)) was 11.6 ± 6.4 ng/g and the Kp at 60 min (female, NOD/SCID, mouse, brain, sc, 1.5 mg/kg, GBM8 PDX, 60 min, single s.c. dose 1.5 mg/kg, read-out: [Brain]/[Plasma] Ratio ± SD) was 0.11.
